Measured values published in patent publication US20100144779A1, “Marine Alkalod Makaluvamines and Derivatives Thereof” (THE UAB RESEARCH FOUNDATION, priority 2007, published 2010).
Like-named read-outs stand apart in the source and are kept apart here.

How the values were obtained:
Test in all cases: MTT growth inhibition assay
Type in all cases: cell-based, human
IMR90-EEA = details: normal cells, 72 hr, read-out: Growth inhibitory activity (IC50)
Experimental: (§1) Several of the disclosed compounds were also tested for their ability to inhibit the growth of other cancer cell lines as shown in Tables 4 and 5. The cell lines were obtained from the American Type Culture Collection (Rockville, Md.) and were grown as follows: MCF-7 (p53 wt) breast cancer cells were grown in DMEM media containing 1 mM non-essential amino acids, Earle's BSS, 1 mM Na pyruvate, and 10 mg/L bovine insulin. MDA-MB-468 (p53 mt) cells were grown in DMEM/F-12 Ham's media (1:1 mixture); H838 (p53 wt) cells were grown in RPMI 1640. H358 (p53 null), H1299 (p53 null) cells were grown in RPMI 1640 supplemented with 1.5 g/L Na2CO3; 4.5 g/L glucose, 10 mM HEPES buffer, 1 mM Na pyruvate and 2 mM L-glutamine. A549 (p53 wt) cells were grown in Ham's F12K medium supplemented with 2 mM L-glutamine and 1.5 g/L Na2CO3; LNCaP (p53 wt) cells were grown in RPMI 1640 supplemented with 1.5 g/L Na2CO3, 4.5 g/L glucose, 10 mM HEPES buffer, 1 mM Na pyruvate and 2 mM L-glutamine. PC3 (p53 null) cells were cultured in Ham's F-12K medium containing 2 mM L-glutamine. TRAMP Cl cells were cultured in DEME medium with 4 mM L-glutamine adjusted to contain 1.5 g/L sodium bicarbonate and 4.5 g/L glucose supplemented with 0.005 mg/ml bovine insulin and 10 nM dehydroisoandrosterone, 5% fetal bovine serum and 5% Nu-Serum IV; HPAC (p53 wt) pancreatic cancer cells were grown in a 1:1 mixture of DMEM and Ham's F12 medium containing 1.2 g/L Na2CO3, 2.5 mM L-glutamine, 15 mM HEPES and 0.5 mM Na pyruvate supplemented with 0.002 mg/mL insulin, 5 μg/mL transferrin, 40 ng/mL hydrocortisone, 10 ng/mL epidermal growth factor and 5% fetal bovine serum. PANC-1 (p53 mt) cells were cultured with RPMI 1640 containing 1 mM HEPES buffer, 25 μg/mL gentamicin, 1.5 g/L Na2CO3 and 0.25 μg/mL amphotericin B. BxPC-3 (p53 mt) cells were grown in RPMI 1640 medium, MiaPaCa-2 (p53 mt) and S2013 (p53 mt) cells were grown in DMEM, cell line CFPAC1 (p53 mt) was grown in Iscove's MEM supplemented with 4 mM L-glutamine; T98G (p53 mt) glioma cells were cultured with DMEM supplemented with 1% Na pyruvate, and 1% non-essential amino acids; HCT116 human colon cancer cell lines were kindly provided by Dr. Bert Vogelstein (Johns Hopkins Oncology Center, Baltimore, Md.). The HCT116 cell line was maintained in McCoy's-5A media; Human bronchial epithelial cell line BEAS 2B was cultured in DMEM medium; Human mammary epithelial cell line MCF10A was cultured in a 1:1 mixture of DMEM and Ham's F12 medium containing 5% horse serum, 15 mM hepes buffer, 10 ug/ml insulin, 20 ng/ml EGF, 100 ng/ml choleratoxin and 0.5 ug/ml hydrocortisone; the human primary fibroblast cell lines IMR90-EEA and IMR90-E1A (transformed using the adenoviral oncogene E1A) were gifts from Dr. S. Lee (Harvard University, Boston, Mass.). IMR90 and IMR90-E1A cells were cultured in DMEM medium.
(§2) All media contained 10% FBS and 1% penicillin/streptomycin unless otherwise specified. The effects of disclosed compounds on human cancer cell growth, expressed as the percentage of cell survival, were determined by the MTT [3-(4,5-Dimethyl-2-thiazolyl)-2,5-diphenyl-2H-tetrazolium bromide] assay. Cells were grown in 96-well plates and exposed to the test compounds (0, 0.01, 0.1, 1, 10, 100 μM) for 72 hr followed by addition of 10 μL MTT solution (5 mg/mL; Sigma; St. Louis, Mo.) to each well. The plates were incubated for 2-4 hr at 37° C. The supernatant was then removed and formazan crystals were dissolved with 100 μL of DMSO. The absorbance at 570 nm was recorded with an OPTImax microplate reader (Molecular Devices; Sunnyvale, Calif.). The cell survival percentages were calculated by dividing the mean OD of compound containing wells by that of DMSO-control wells. Three separate experiments were accomplished to determine the IC50.

H358 = details: 72 hr, read-out: Growth inhibitory activity (IC50)
Experimental: as §1, §2

CFPAC1 = details: 72 hr, read-out: Growth inhibitory activity (IC50)
Experimental: as §1, §2

Panc-1 = details: Panc-1, cancer cell, 72 hr, read-out: Growth inhibitory activity (IC50)
Experimental: as §1, §2

LNCaP = details: cancer cell, 72 hr, read-out: Growth inhibitory activity (IC50)
Experimental: as §1, §2

H1299 = details: 72 hr, read-out: Growth inhibitory activity (IC50)
Experimental: as §1, §2

MCF10A = details: normal cells, 72 hr, read-out: Growth inhibitory activity (IC50)
Experimental: as §1, §2

MDA-MB-468 = details: MDA-MB-468, cancer cell, 72 hr, read-out: Growth inhibitory activity (IC50)
Experimental: as §1, §2

BXPC3 = details: 72 hr, read-out: Growth inhibitory activity (IC50)
Experimental: as §1, §2

Mia-paca = details: 72 hr, read-out: Growth inhibitory activity (IC50)
Experimental: as §1, §2

S2013 = details: S2013, cancer cell, 72 hr, read-out: Growth inhibitory activity (IC50)
Experimental: as §1, §2

HPAC = details: cancer cell, 72 hr, read-out: Growth inhibitory activity (IC50)
Experimental: as §1, §2

H838 = details: 72 hr, read-out: Growth inhibitory activity (IC50)
Experimental: as §1, §2

BEAS-2B = details: normal cells, 72 hr, read-out: Growth inhibitory activity (IC50)
Experimental: as §1, §2

[1] = Homo sapiens, NCI-H358, H358, cancer cell
[2] = Homo sapiens, CFPAC-1, CFPAC1, cancer cell
[3] = Homo sapiens, NCI-H1299, H1299, cancer cell
[4] = Homo sapiens, BXPC-3, BXPC3, cancer cell
[5] = Homo sapiens, MIA PaCa-2, cancer cell
[6] = Homo sapiens, NCI-H838, H838, cancer cell

SMILES	IC50 (IMR90-EEA; Homo sapiens) [nM]	IC50 (H358; [1]) [nM]	IC50 (CFPAC1; [2]) [nM]	IC50 (Panc-1; Homo sapiens) [nM]	IC50 (LNCaP; Homo sapiens) [nM]	IC50 (H1299; [3]) [nM]	IC50 (MCF10A; Homo sapiens, MCF-10A) [nM]	IC50 (MDA-MB-468; Homo sapiens) [nM]	IC50 (BXPC3; [4]) [nM]	IC50 (Mia-paca; [5]) [nM]	IC50 (S2013; Homo sapiens) [nM]	IC50 (HPAC; Homo sapiens) [nM]	IC50 (H838; [6]) [nM]	IC50 (BEAS-2B; Homo sapiens) [nM]	IC50 (IMR90-EEA) [nM]	IC50 (H358; H358, cancer cell) [nM]	IC50 (CFPAC1; CFPAC1, cancer cell) [nM]	IC50 (Panc-1) [nM]	IC50 (LNCaP) [nM]	IC50 (H1299; H1299, cancer cell) [nM]	other results
COc1ccc(CCNC2=CC3=NCCc4c[nH]c(c43)C2=O)cc1OC.O=C(O)C(F)(F)F [Compound 20]	2880	983	4270	720	24500	5990	3400	277	5010	1320	29600	2850	838	1690	–	–	–	–	–	–	–
O=C1C(NCCc2ccccc2)=CC2=NCCc3c[nH]c1c32 [Compound 4d]	–	–	–	–	–	–	–	–	–	–	–	–	–	–	3770	398	5110	258	161	4270	IC50 (MCF10A): 6820 nM; IC50 (MDA-MB-468): 101 nM; IC50 (BXPC3; BXPC3, cancer cell): 2940 nM; IC50 (Mia-paca; cancer cell): 982 nM; IC50 (S2013): 5390 nM; IC50 (HPAC): 1130 nM; IC50 (H838; H838, cancer cell): 260 nM; IC50 (BEAS-2B): 695 nM
O=C(O)C(F)(F)F.O=C1C(NCCc2ccc3c(c2)OCO3)=CC2=NCCc3c[nH]c1c32 [Compound 6]	5700	1200	9100	587	3960	5940	13100	428	3210	2740	11200	2920	665	2240	–	–	–	–	–	–	–
O=C(O)C(F)(F)F.O=C1C(NCc2ccc(F)cc2)=CC2=NCCc3c[nH]c1c32 [Compound 28]	1490	170	5400	104	1290	968	5330	125	2300	315	4450	535	110	587	–	–	–	–	–	–	–
O=C1C(NCc2ccccc2)=CC2=NCCc3c[nH]c1c32 [Compound 4c]	–	–	–	–	–	–	–	–	–	–	–	–	–	–	2770	436	8770	141	2750	1420	IC50 (MCF10A): 5270 nM; IC50 (MDA-MB-468): 126 nM; IC50 (BXPC3; BXPC3, cancer cell): 2870 nM; IC50 (Mia-paca; cancer cell): 345 nM; IC50 (S2013): 3850 nM; IC50 (HPAC): 689 nM; IC50 (H838; H838, cancer cell): 160 nM; IC50 (BEAS-2B): 1440 nM
